Results: patent US20230113037A1 (Bayer Aktiengesellschaft, priority 2019, published 2023)
Read-outs that look alike come from different tables or passages of the source.

Key:
[1] = molecular target: T1, AHR (Homo sapiens, UniProt P35869); assay: In vitro assay 1: antagonism in human cell line (AHR transactivation, firefly luciferase reporter, kynurenic acid prestimulated); type: cell-based; conditions: AHR Antagonism Human IC50 [M], firefly luciferase reporter
T1 construct: U87 MG glioblastoma cells (ATCC #HTB-14) endogenously expressing AHR; endogenous in cells; host or cells: U87 MG glioblastoma cells (ATCC #HTB-14)
T1 sequence (P35869 11-848): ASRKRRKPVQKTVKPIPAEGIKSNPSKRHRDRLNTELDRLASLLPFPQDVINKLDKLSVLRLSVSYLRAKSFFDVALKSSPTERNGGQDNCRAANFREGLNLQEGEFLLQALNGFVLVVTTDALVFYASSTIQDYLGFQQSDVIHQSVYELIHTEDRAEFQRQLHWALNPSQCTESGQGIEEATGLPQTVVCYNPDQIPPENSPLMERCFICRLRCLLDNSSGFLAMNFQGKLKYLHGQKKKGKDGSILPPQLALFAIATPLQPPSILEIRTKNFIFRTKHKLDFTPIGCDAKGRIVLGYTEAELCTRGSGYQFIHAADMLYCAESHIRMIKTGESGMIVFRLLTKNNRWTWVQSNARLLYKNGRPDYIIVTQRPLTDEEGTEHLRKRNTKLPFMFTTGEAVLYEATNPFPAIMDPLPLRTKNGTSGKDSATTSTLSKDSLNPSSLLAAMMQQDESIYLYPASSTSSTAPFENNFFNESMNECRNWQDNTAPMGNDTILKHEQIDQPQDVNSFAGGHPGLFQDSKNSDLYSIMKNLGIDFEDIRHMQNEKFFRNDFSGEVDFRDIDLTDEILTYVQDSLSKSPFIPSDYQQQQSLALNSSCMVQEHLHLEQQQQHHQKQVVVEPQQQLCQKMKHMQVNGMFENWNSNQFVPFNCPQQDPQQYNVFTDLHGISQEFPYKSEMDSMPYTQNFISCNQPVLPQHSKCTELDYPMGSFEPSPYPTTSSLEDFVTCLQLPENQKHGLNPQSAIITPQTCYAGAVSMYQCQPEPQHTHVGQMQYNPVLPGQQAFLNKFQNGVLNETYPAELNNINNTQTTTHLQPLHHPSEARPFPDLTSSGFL
Outline: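 U87 MG glioblastoma cells with endogenous AHR, stably carrying a DRE-driven firefly luciferase reporter and constitutive Renilla reporter, prestimulated with kynurenic acid before compound addition. Firefly and Renilla read by dual luciferase; Renilla flags toxicity; normalized to controls (150 μM kynurenic acid + 5 μM staurosporine as full inhibition); repeat values averaged or median.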

[2] = molecular target: T2, AHR (Mus musculus, UniProt P30561); assay: In vitro assay 3: antagonism in mouse cell line (AHR transactivation, firefly luciferase reporter, kynurenic acid prestimulated); type: cell-based
T2 sequence (P30561 1-848 P471L/N533S/M589L): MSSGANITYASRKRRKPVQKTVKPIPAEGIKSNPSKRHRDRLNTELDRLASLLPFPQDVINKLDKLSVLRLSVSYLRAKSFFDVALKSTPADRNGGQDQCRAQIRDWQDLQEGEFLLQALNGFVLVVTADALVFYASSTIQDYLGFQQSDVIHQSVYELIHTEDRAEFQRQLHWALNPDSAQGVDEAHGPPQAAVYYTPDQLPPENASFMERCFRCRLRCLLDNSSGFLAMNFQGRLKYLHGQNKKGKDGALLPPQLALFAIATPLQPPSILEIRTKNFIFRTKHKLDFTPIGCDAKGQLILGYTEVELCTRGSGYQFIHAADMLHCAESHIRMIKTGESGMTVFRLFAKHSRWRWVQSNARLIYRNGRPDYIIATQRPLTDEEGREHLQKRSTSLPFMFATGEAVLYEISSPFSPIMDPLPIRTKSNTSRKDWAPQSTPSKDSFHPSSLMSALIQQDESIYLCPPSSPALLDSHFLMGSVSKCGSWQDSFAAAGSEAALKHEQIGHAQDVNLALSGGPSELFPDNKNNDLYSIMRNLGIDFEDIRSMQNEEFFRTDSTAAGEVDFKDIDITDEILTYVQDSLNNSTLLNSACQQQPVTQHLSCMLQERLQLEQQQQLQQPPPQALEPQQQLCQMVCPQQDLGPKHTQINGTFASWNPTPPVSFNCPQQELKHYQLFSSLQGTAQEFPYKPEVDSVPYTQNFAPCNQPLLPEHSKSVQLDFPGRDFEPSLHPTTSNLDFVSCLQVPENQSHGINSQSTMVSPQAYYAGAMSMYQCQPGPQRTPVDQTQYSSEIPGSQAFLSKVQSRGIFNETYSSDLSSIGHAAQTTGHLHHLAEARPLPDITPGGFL
Outline: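 Mouse cells stably carrying a DRE-driven, AHR-inducible firefly luciferase reporter were prestimulated with the endogenous agonist kynurenic acid before compound addition. Luciferase activity was measured by luminescence and normalized to positive and negative controls, with cells lacking kynurenic acid serving as full-inhibition control. Repeat tests are reported as mean or median.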

[3] = Hepa 1c1c7 cells, 200 μM kynurenic acid, 20 hours, firefly luciferase reporter, read-out: AHR Antagonism Mouse IC50
[4] = read-out: AHR Antagonism Mouse IC50, Hepa 1c1c7 cells, 200 μM kynurenic acid, 20 hours, firefly luciferase reporter

Structure (SMILES) | IC50 [1] | IC50 [2, 3] | IC50 [2, 4]
O=C1NCCNC[C@H]1Nc1nc2c(C(F)(F)F)cccc2c2nc(-c3ccc(Cl)cc3)nn12 [Example 947, (6R)-6-{[2-(4-chlorophenyl)-7-(trifluoromethyl)[1,2,4]triazolo[1,5-c]quinazolin-5-yl]amino}-1,4-diazepan-5-one] | 5.91e-10 M | 0.000324 µM | 
Cc1nn(C)cc1-c1nc2c3cccc(C(F)(F)F)c3nc(N[C@H]3CNCCNC3=O)n2n1 [Example 948] | 2.08e-08 M | 0.0496 µM | 
CCn1cc(-c2nc3c4cccc(C(F)(F)F)c4nc(N[C@H]4CNCCNC4=O)n3n2)c(C)n1 [Example 949, (6S)-6-{[2-(1-ethyl-3-methyl-1H-pyrazol-4-yl)-7-(trifluoromethyl)[1,2,4]triazolo[1,5-c]quinazolin-5-yl]amino}-1,4-diazepan-5-one] | 4.4e-09 M | 0.0147 µM | 
Cc1nn(C)cc1-c1nc2c3cccc(Cl)c3nc(N[C@@H]3CNCCNC3=O)n2n1 [Example 951, (6R)-6-{[7-chloro-2-(1,3-dimethyl-1H-pyrazol-4-yl)[1,2,4]triazolo[1,5-c]quinazolin-5-yl]amino}-1,4-diazepan-5-one] | 3.22e-09 M | 0.00544 µM | 
O=C1NCCNC[C@H]1Nc1nc2c(Br)cccc2c2nc(-c3cnn(C4CC4)c3)nn12 [Example 952, (6R)-6-{[7-bromo-2-(1-cyclopropyl-1H-pyrazol-4-yl)[1,2,4]triazolo[1,5-c]quinazolin-5-yl]amino}-1,4-diazepan-5-one] | 3.97e-09 M |  | 0.00674 µM
O=C1NCCNC[C@@H]1Nc1nc2c(Br)cccc2c2nc(-c3cnn(C4CC4)c3)nn12 [Example 953, (6S)-6-{[7-bromo-2-(1-cyclopropyl-1H-pyrazol-4-yl)[1,2,4]triazolo[1,5-c]quinazolin-5-yl]amino}-1,4-diazepan-5-one] | 2.14e-08 M |  | 0.0149 µM
O=C1NCCNC[C@H]1Nc1nc2c(C3CC3)cccc2c2nc(-c3cnn(CC4CC4)c3)nn12 [Example 954, (6R)-6-({7-cyclopropyl-2-[1-(cyclopropylmethyl)-1H-pyrazol-4-yl][1,2,4]triazolo[1,5-c]quinazolin-5-yl}amino)-1,4-diazepan-5-one] | 7.73e-08 M | 0.341 µM | 
CC(C)n1cc(-c2nc3c4cccc(C5CC5)c4nc(N[C@@H]4CNCCNC4=O)n3n2)cn1 [Example 955, (6R)-6-({7-cyclopropyl-2-[1-(propan-2-yl)-1H-pyrazol-4-yl][1,2,4]triazolo[1,5-c]quinazolin-5-yl}amino)-1,4-diazepan-5-one] | 5.57e-08 M | 0.452 µM | 
CC(C)n1cc(-c2nc3c4cccc(Cl)c4nc(N[C@@H]4CNCCNC4=O)n3n2)cn1 [Example 956, (6R)-6-({7-chloro-2-[1-(propan-2-yl)-1H-pyrazol-4-yl][1,2,4]triazolo[1,5-c]quinazolin-5-yl}amino)-1,4-diazepan-5-one] | 5.77e-09 M | 0.0085 µM | 
CCn1cc(-c2nc3c4cccc(Cl)c4nc(N[C@@H]4CNCCNC4=O)n3n2)cn1 [Example 957, (6R)-6-{[7-chloro-2-(1-ethyl-1H-pyrazol-4-yl)[1,2,4]triazolo[1,5-c]quinazolin-5-yl]amino}-1,4-diazepan-5-one] | 1.22e-08 M | 0.0168 µM | 
CCn1cc(-c2nc3c4cccc(Cl)c4nc(N[C@@H]4CNCCNC4=O)n3n2)c(C)n1 [Example 958, (6R)-6-{[7-chloro-2-(1-ethyl-3-methyl-1H-pyrazol-4-yl)[1,2,4]triazolo[1,5-c]quinazolin-5-yl]amino}-1,4-diazepan-5-one] | 1.9e-09 M | 0.00284 µM | 
COc1ccc(-c2nc3c4cccc(C5CC5)c4nc(N[C@H]4CNCCNC4=O)n3n2)cc1 [Example 959, (6S)-6-{[7-cyclopropyl-2-(4-methoxyphenyl)[1,2,4]triazolo[1,5-c]quinazolin-5-yl]amino}-1,4-diazepan-5-one] | 5.36e-08 M | 0.368 µM | 
CC(C)n1cc(-c2nc3c4cccc(C(F)(F)F)c4nc(N[C@H]4CNCCNC4=O)n3n2)cn1 [Example 960, (6S)-6-({2-[1-(propan-2-yl)-1H-pyrazol-4-yl]-7-(trifluoromethyl)[1,2,4]triazolo[1,5-c]quinazolin-5-yl}amino)-1,4-diazepan-5-one] | 4.02e-08 M | 0.093 µM | 
CCn1cc(-c2nc3c4cccc(F)c4nc(N[C@@H]4CNCCNC4=O)n3n2)cn1 [Example 961, (6R)-6-{[2-(1-ethyl-1H-pyrazol-4-yl)-7-fluoro-[1,2,4]triazolo[1,5-c]quinazolin-5-yl]amino}1-4,-diazepan-5-one] | 7.95e-07 M | 0.272 µM | 
Cc1nn(C)cc1-c1nc2c3cccc(Br)c3nc(N[C@@H]3CNCCNC3=O)n2n1 [Example 962, (6R)-6-{[7-bromo-2-(1,3-dimethyl-1H-pyrazol-4-yl)[1,2,4]triazolo[1,5-c]quinazolin-5-yl]amino}-1,4-diazepan-5-one] | 4.37e-09 M | 0.0109 µM | 
O=C1NCCNC[C@H]1Nc1nc2c(C(F)(F)F)cccc2c2nc(-c3cnn(C4CC4)c3)nn12 [Example 963, (6R)-6-{[2-(1-cyclopropyl-1H-pyrazol-4-yl)-7-(trifluoromethyl)[1,2,4]triazolo[1,5-c]quinazolin-5-yl]amino}-1,4-diazepan-5-one] | 1.76e-09 M | 0.00479 µM | 
O=C1NCCNC[C@H]1Nc1nc2c(Cl)cccc2c2nc(-c3cnn(C4CC4)c3)nn12 [Example 966, (6R)-6-{[7-chloro-2-(1-cyclopropyl-1H-pyrazol-4-yl)[1,2,4]triazolo[1,5-c]quinazolin-5-yl]amino}-1,4-diazepan-5-one] | 9.02e-09 M | 0.00929 µM | 
O=C1NCCNC[C@H]1Nc1nc2c(Br)cccc2c2nc(-c3cnn(CC4CC4)c3)nn12 [Example 968, (6R)-6-({7-bromo-2-[1-(cyclopropylmethyl)-1H-pyrazol-4-yl][1,2,4]triazolo[1,5-c]quinazolin-5-yl}amino)-1,4-diazepan-5-one] | 6.97e-09 M | 0.00746 µM | 
Cc1c(-c2nc3c4cccc(F)c4nc(N[C@@H]4CNCCNC4=O)n3n2)cnn1C [Example 969, (6R)-6-{[2-(1,5-dimethyl-1H-pyrazol-4-yl)-7-fluoro[1,2,4]triazolo[1,5-c]quinazolin-5-yl]amino}-1,4-diazepan-5-one] | 6.3e-07 M | 0.298 µM | 
CC(C)n1cc(-c2nc3c4cccc(F)c4nc(N[C@@H]4CNCCNC4=O)n3n2)cn1 [Example 971, (6R)-6-({7-fluoro-2-[1-(propan-2-yl)-1H-pyrazol-4-yl][1,2,4]triazolo[1,5-c]quinazolin-5-yl}amino)-1,4-diazepan-5-one] | 7.72e-07 M | 0.286 µM | 
COc1ccc(-c2nc3c4cccc(Br)c4nc(N[C@H]4CNCCNC4=O)n3n2)cc1 [Example 972, (6S)-6-{[7-bromo-2-(4-methoxyphenyl)[1,2,4]triazolo[1,5-c]quinazolin-5-yl]amino}-1,4-diazepan-5-one] | 3.09e-08 M | 0.00712 µM | 
CCn1cc(-c2nc3c4cccc(Br)c4nc(N[C@@H]4CNCCNC4=O)n3n2)c(C)n1 [Example 974] | 8.12e-10 M | 0.00186 µM | 
